Laboratory results from patent publication US20230391808A1, “PHOSPHAPHENALENE-GOLD(I) COMPLEXES AS CHEMOTHERAPEUTIC AGENTS AGAINST GLIOBLASTOMA” (priority 2020, published 2023).
Where two headings read alike, the source gives them in different places.

Experiments:
[1] = target: thioredoxin reductase (Homo sapiens, UniProt Q16881); conditions: Jortzik E. et al. 2014; cited from earlier work
[2] = target: human glutathione reductase (Homo sapiens, UniProt P00390); conditions: Jortzik E. et al. 2014; cited from earlier work
[3] = system: NCH82; conditions: Deponte M. et al. 2005; read-out: IC50, proliferation of NCH82; cited from earlier work
[4] = system: NCH89; conditions: Deponte M. et al. 2005; read-out: IC50, proliferation of NCH89; cited from earlier work
[5] = system: GSCs (NCH421k, NCH644, and NCH660h); assay: Annexin V apoptosis assay (flow cytometry), GSCs; format: cell-based, human; conditions: 48 hour-incubation (FIG. 3C)
Experimental: (§1) It was further analyzed whether Compound 4 could sensitize GBM cells (NCH82 and NCH89) and GSCs (NCH421k, NCH644, and NCH660h) to apoptosis. The increase of apoptotic/necrotic cells with increasing concentrations of Compound 4 is illustrated in FIG. 3.
(§2) Thus, after a 48 hour-incubation period with different concentrations of Compound 4, the conventional GBM cells and GSCs were analyzed by flow cytometry. Annexin V and propidium iodide (PI) were used as indicators for apoptosis/necrosis. In line with the obtained IC50 values listed in Table 2, NCH82 cells appeared to be the most sensitive GBM cell line.
(§3) To quantitate the extent of apoptosis and necrosis, either annexin V staining combined with DAPI or double labeling of cells with annexin V and propidium iodide (PI) was used. The double labeling allows the distinction between apoptotic (annexin V^pos/DAPI^neg or annexin V^pos/PI^neg) and necrotic (annexin V^pos/DAPI^pos or annexin V^pos/PI^pos) cells. Cells were seeded in a 6-well plate (2.5×10^5/well) and left to attach overnight. Medium was replaced by fresh medium containing defined drug concentrations or compound solvent DMSO (untreated control) and incubated for 24 h. As positive control cells were treated with 1 μM of the apoptosis-inducing reagent staurosporin (#9953, Cell Signaling Technology, Danvas, USA). […]

[6] = Solubility in solvents; format: physicochemical
From the text: Importantly, all compounds 1-4 readily dissolved in DMSO/H2O mixtures 1:9. Compound 1 was the least soluble and started to precipitate at concentrations higher than 0.1 M.

[7] = system: NCH89; assay: Annexin V apoptosis assay (flow cytometry), NCH89; format: cell-based, human
Experimental: as §1, §2, §3

[8] = system: NCH82, NCH89, NCH125, and NCH210 cells; assay: Wound-healing (scratch) assay, tumor cell migration; format: cell-based, human
Experimental: Besides an increased tumor cell proliferation, a highly invasive cell growth drives malignancy of GBM. To obtain a more complete picture of the anti-cancer action of the compounds according to the invention, the effects of compound 4 on GBM cell invasion were investigated using a conventional wound-healing assay with NCH82, NCH89, NCH125, and NCH210 cells.
The results of the wound-healing assay are depicted in FIG. 2. […] The cells were imaged at 0 hours (t0) and at 24 hours (t1) after introducing the scrape. Cell migration was assessed by measuring cell-free areas at t0 and their reduction at t1.
To assess the effect of the drugs on cell migration in vitro cells were seeded in 6-well plates (5×10^5/Well) and left to attach. On the next day the cell monolayer was scraped in a straight line to create a “scratch” with a p200 pipet tip. […] Phase contrast images were acquired at 0 h and after 12 h of exposure to the respective drug concentration using a BX50 microscope with a SC30 camera (both Olympus, Tokyo, Japan). The cell-free areas at both time points were quantified and compared using the imaging software cellSens (Olympus, Tokyo, Japan).

[9] = system: NCH82; assay: Annexin V apoptosis assay (flow cytometry), NCH82; format: cell-based, human; conditions: drug concentration of 2 μM, 48 hour-incubation (FIG. 3B)
Experimental: as §2
To quantitate the extent of apoptosis and necrosis, either annexin V staining combined with DAPI or double labeling of cells with annexin V and propidium iodide (PI) was used. The double labeling allows the distinction between apoptotic (annexin V^pos/DAPI^neg or annexin V^pos/PI^neg) and necrotic (annexin V^pos/DAPI^pos or annexin V^pos/PI^pos) cells. […]
After treatment supernatant containing apoptotic and necrotic cells was collected, cells were harvested, washed, and up to 1×10^6 cells were incubated with FITC-conjugated annexin V antibody diluted in 1:1000 DAPI solution following manufactures instructions (#51-65874X, BD Bioscienes, Franklin Lakes, USA) or incubated with FITC-conjugated annexin V antibody and PI for 15 min following manufacturer instructions (#51-65974X, BD Biosciences, Franklin Lakes, USA). Cells were acquired by flow cytometry using a BD LSRII flow cytometer (BD Bioscienes, Franklin Lakes, USA) and analyzed by FlowJo Software v7.6.5 (TreeStar, Ahland, USA).

[10] = system: NCH89; assay: Crystal violet proliferation assay, NCH89; format: cell-based, human; conditions: glioblastoma cell line, 48 h exposure, mean of three biological replicates ± standard deviation
[11] = system: NCH82; assay: Crystal violet proliferation assay, NCH82; format: cell-based, human; conditions: glioblastoma cell line, 48 h exposure, mean of three biological replicates ± standard deviation
[12] = system: NCH149; assay: Crystal violet proliferation assay, NCH149; format: cell-based, human; conditions: glioblastoma cell line, 48 h exposure, mean of three biological replicates ± standard deviation
Experimental: In order to investigate the role of the fused phosphaphenalene ring in the bio-activity of the drug, the ability of Compound 5 to inhibit cell proliferation in the glioblastoma cell lines NCH82, NCH89 and NCH149 was examined. For this purpose, cells were incubated with increasing concentrations of Compound 5 and cell proliferation was evaluated by crystal violet assay.
The effect of different compounds on cell growth was evaluated by the crystal violet method as described earlier (J. P. Rigalli et al., Cancer Lett. 2016, 376, 165-172). Briefly, cells were seeded in 96-well plates (10,000 cells/well). After 24 h cell culture medium was replaced by fresh compound-containing medium (ten different concentrations (0.01 to 200 μM μM)). After 48 h of exposure extent of cell proliferation inhibition was determined by crystal violet staining of surviving cells. Therefore, cells were washed and stained with 0.5% crystal violet solution (2.5 g in 100 ml methanol, diluted with 400 ml aqua bidest) for 15 min, rinsed and dried overnight.
Next, crystal violet was solubilized in methanol and absorbance was measured at 555 nm. The proliferative index was calculated as crystal violet absorption intensity as percentage relative to baseline (no cells) as described before (T. Peters et al., Naunyn Schmiedebergs Arch Pharmacol. 2006, 372, 291-299.) Cell survival plotted against the decimal logarithm of drug concentration in μM (c (of compound x) in μM) and fitted to a sigmoidal dose-response curve using Graph Pad Prism 7.02 (GraphPad Software, San Diego, USA).

[13] = Stability in dimethylsulfoxide/H2O solutions; format: physicochemical; conditions: over weeks
[14] = Stability under controlled thermodynamic conditions upon repetitive cycles of illumination; format: physicochemical; conditions: data not shown

Sequence of thioredoxin reductase (Q16881 151-649 limits assumed): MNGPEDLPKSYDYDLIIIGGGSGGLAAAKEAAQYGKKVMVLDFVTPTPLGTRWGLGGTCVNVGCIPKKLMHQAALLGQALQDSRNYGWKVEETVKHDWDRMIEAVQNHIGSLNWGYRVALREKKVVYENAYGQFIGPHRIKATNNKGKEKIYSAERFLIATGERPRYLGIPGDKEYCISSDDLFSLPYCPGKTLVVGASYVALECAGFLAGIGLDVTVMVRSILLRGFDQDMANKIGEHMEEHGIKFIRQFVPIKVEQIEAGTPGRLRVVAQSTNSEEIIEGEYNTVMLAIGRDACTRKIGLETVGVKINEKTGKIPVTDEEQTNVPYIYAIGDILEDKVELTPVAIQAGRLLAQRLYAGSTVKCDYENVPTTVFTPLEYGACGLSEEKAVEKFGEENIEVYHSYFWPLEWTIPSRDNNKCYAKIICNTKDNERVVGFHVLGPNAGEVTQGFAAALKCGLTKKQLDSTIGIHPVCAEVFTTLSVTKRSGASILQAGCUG
Sequence of human glutathione reductase (P00390 44-522): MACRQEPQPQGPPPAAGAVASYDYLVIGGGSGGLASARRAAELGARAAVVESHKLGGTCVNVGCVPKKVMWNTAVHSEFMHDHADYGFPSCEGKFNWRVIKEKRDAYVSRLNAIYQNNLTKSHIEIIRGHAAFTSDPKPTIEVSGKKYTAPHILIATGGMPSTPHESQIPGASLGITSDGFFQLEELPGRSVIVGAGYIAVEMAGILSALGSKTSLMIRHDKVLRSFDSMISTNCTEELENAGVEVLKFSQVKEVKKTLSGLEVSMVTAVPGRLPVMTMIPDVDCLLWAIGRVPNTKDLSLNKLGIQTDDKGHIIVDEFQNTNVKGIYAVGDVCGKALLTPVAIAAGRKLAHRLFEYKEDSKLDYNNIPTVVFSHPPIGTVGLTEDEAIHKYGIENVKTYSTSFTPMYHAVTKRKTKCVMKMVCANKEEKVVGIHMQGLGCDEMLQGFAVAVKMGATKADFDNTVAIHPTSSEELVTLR

1-phenyl-bis(2-pyridyl)phosphole gold chloride thio-β-d-glucose tetraacetate [GoPI-sugar]
IC50 [1]: 0.0043 µM | IC50 [2]: 0.0885 µM

[Cl][Au][PH]1(c2ccccc2)C(c2ccccn2)=CC=C1c1ccccn1 [GoPI, [1-phenyl-2,5-di(2-pyridyl)phosphole]AuCl]
IC50 [3]: 12.5 ± 0.8 µM | IC50 [4]: 10.8 ± 0.8 µM

CC(=O)OCC1OC([S][Au][PH]2(c3ccccc3)c3cscc3-c3cccc4cccc2c34)C(OC(C)=O)C(OC(C)=O)C1OC(C)=O (stereo not drawn) [Compound 4]
induction of apoptosis, GSCs [5]: induction of apoptosis could be demonstrated but to a lesser extent | solubility in methanol, ethanol, DCM, CHCl3, Et2O and acetone [6]: soluble | solubility in pentane and hexane [6]: insoluble | apoptotic/necrotic cells, NCH89 ([7]; 1 μM, 2 μM, and 10 μM for 24 hours (FIG. 3A)): dose-dependent increase of apoptotic/necrotic cells | cell death, NCH89 ([7]; concentration of 2 μM, 48 hour-incubation (FIG. 3B)): no cell death | wound closure compared to untreated control cells ([8]; at least the corresponding IC50 concentrations, 24 hours): significantly decreased wound closure | wound closure ([8]; concentrations c(IC50)/2 and c(IC50)/10, 24 hours): not significantly affected | induction of apoptosis, NCH82 [9]: induced apoptosis in a high percentage of cells

Cn1ccc2c1-c1cccc3cccc(c13)[P+]2([Au-][Cl])c1ccccc1 (stereo not drawn) [Compound 5]
IC50 [10]: 15.1 µM | IC50 [11]: 8.1 µM | IC50 [12]: 8.87 µM

[Cl][Au][PH]1(c2ccccc2)c2cscc2-c2cccc3cccc1c23 [Compound 1]
stability in dimethylsulfoxide/H2O solutions [13]: high stability | concentration above which precipitation starts ([6]; DMSO/H2O mixtures 1:9): higher than 0.1 M

CC(=O)OC[C@H]1O[C@@H]([S][Au-][P+]2(c3ccccc3)c3ccn(S(=O)(=O)c4ccccc4)c3-c3cccc4cccc2c34)[C@H](OC(C)=O)[C@@H](OC(C)=O)[C@@H]1OC(C)=O (stereo partly drawn) [Compound 8]
stability upon repetitive cycles of illumination [14]: very high stability | IC50 [10]: 4.49 µM | IC50 [11]: 1.37 µM | IC50 [12]: 2.85 µM
